Experimental data published in ChEMBL document CHEMBL5674860, “Optimized Dual-Glo Assay to identify co-culture-induced drug vulnerabilities in 3D CRC models” (2024).

Assays:
Type in all cases: functional, Homo sapiens
Design in all cases: dose or concentration left out as unconfirmed
Colon cancer organoid [1] = test: Optimized Dual-Glo assay to identify co-culture induced drug vulnerabilities using donated chemical probes and chemogenomics kinase set in O06 CRC organoid and F06 CAF mono and co-culture. […] Cell viability is reported both mono and co-culture models.
Colon cancer organoid [2] = test: Optimized Dual-Glo assay to identify co-culture induced drug vulnerabilities using donated chemical probes and chemogenomics kinase set in O14 CRC organoid and F14 CAF mono and co-culture. […] Cell viability is reported both mono and co-culture models.
Colon cancer organoid [3] = test: Optimized Dual-Glo assay to identify co-culture induced drug vulnerabilities using donated chemical probes and chemogenomics kinase set in O20 CRC organoid and F20 CAF mono and co-culture. […] Cell viability is reported both mono and co-culture models.
[4] = Culture type Co-Culture, Transduced with Lucferase2-P2A-EGFP lentivirus
[5] = Culture type Co-Culture, Transduced with Renilla-dsRed lentivirus
[6] = Culture type Mono-Culture, Transduced with Lucferase2-P2A-EGFP lentivirus
[7] = Culture type Mono-Culture, Transduced with Renilla-dsRed lentivirus

Row | Structure (SMILES) | Cell Viability (Colon cancer organoid [1]; [4]) | Cell Viability (Colon cancer organoid [1]; [5]) | Cell Viability (Colon cancer organoid [1]; [6]) | Cell Viability (Colon cancer organoid [1]; [7]) | Cell Viability (Colon cancer organoid [2]; [4]) | Cell Viability (Colon cancer organoid [2]; [5]) | Cell Viability (Colon cancer organoid [2]; [6]) | Cell Viability (Colon cancer organoid [2]; [7]) | Cell Viability (Colon cancer organoid [3]; [4]) | Cell Viability (Colon cancer organoid [3]; [5]) | Cell Viability (Colon cancer organoid [3]; [6]) | Cell Viability (Colon cancer organoid [3]; [7])
1 | CCNC(=O)c1cc2c(-c3cc(C(C)(C)O)ccc3Oc3c(C)cc(F)cc3C)cn(C)c(=O)c2[nH]1 [ABBV-744] | 91.6049% | 287.135% | 45.0108% | 272.327% | 55.2801% | 319.971% | 42.072% | 212.265% | 58.1744% | 215.224% | 60.9117% | 122.12%
2 | CC#CC(=O)N1CCC[C@H]1c1nc(-c2ccc(C(=O)Nc3ccccn3)cc2)c2c(N)nccn12 [ACALABRUTINIB] | 96.562% | 83.4698% | 98.0139% | 99.6421% | 70.2708% | 100.717% | 59.6403% | 100.701% | 96.1769% | 99.9657% | 56.8336% | 71.1135%
3 | CN(C)C/C=C/C(=O)Nc1cc2c(Nc3ccc(F)c(Cl)c3)ncnc2cc1O[C@H]1CCOC1.O=C(O)/C=C\C(=O)O.O=C(O)/C=C\C(=O)O [AFATINIB DIMALEATE] | 26.678% | 56.3894% | 6.9021% | 44.0198% | 29.2387% | 54.1607% | 5.719% | 44.7132% | 37.5755% | 73.123% | 10.3381% | 31.0858%
4 | COc1cc(Nc2ncc3c(n2)-c2ccc(Cl)cc2C(c2c(F)cccc2OC)=NC3)ccc1C(=O)O [ALISERTIB] | 20.0499% | 286.415% | 8.923% | 120.563% | 16.1373% | 168.728% | 26.2121% | 103.392% | 6.089% | 322.747% | 10.9419% | 116.531%
5 | Cc1nc(NC(=O)N2CCC[C@H]2C(N)=O)sc1-c1ccnc(C(C)(C)C(F)(F)F)c1 [ALPELISIB] | 74.6278% | 68.5217% | 72.4718% | 69.5837% | 44.356% | 105.185% | 47.7974% | 68.4414% | 70.7946% | 99.8659% | 21.7931% | 78.1697%
6 | CC(C)[C@H](C(=O)Nc1ccc(C(=O)NO)cc1)c1ccccc1 [AR-42] | 8.004% | 640.047% | 17.2646% | 486.211% | 19.466% | 585.967% | 17.1608% | 305.591% | 13.9159% | 352.85% | 21.6913% | 192.04%
7 | Cc1cnc(-c2cc(Cl)ccc2F)cc1-n1c(=O)n(CC(N)=O)c2ccccc21 [Al11] | 79.8154% | 66.9379% | 96.9616% | 102.254% | 93.5042% | 89.0527% | 114.229% | 91.7467% | 99.824% | 109.542% | 113.608% | 109.646%
8 | Cc1ccccc1Oc1cc(-n2c(=O)cc(C(F)(F)F)[nH]c2=O)c2ccccc2c1Cl [BAY-069] | 128.819% | 153.89% | 114.766% | 111.149% | 114.551% | 130.948% | 135.188% | 102.99% | 83.88% | 119.466% | 87.9837% | 109.318%
9 | Cn1c(-c2csc(C3CCN(CC4=NC5N=CC=CC5N4)CC3)n2)nc2ccccc21 (stereo not drawn) [BAY-070] | 29.934% | 49.5381% | 49.5158% | 105.274% | 71.6704% | 82.4795% | 106.637% | 95.1305% | 41.8948% | 84.0468% | 78.1822% | 83.7423%
10 | NS(=O)(=O)c1cc(NC(=O)C2(c3ccccc3Cl)CC2)ccc1Oc1cccc(Cl)c1 [BAY-207] | 80.0716% | 155.512% | 77.1877% | 150.163% | 108.195% | 102.868% | 157.597% | 122.925% | 177.814% | 111.752% | 143.896% | 130.032%
11 | CNCc1ccccc1-c1csc([C@@H](C)Nc2nc(C)nc3cc(OC)c(OC)cc23)c1 [BAY-293] | 76.9111% | 225.989% | 4.78% | 87.8539% | 46.6211% | 132.811% | 47.2835% | 107.217% | 78.2703% | 145.24% | 64.4683% | 82.7466%
12 | Cc1cc(NC(=O)c2cccc(S(F)(F)(F)(F)F)c2)cc(-n2ccn3nc(-c4cccnc4)cc23)c1 [BAY-309] | 84.4525% | 147.367% | 49.1708% | 77.7093% | 98.153% | 84.8781% | 155.954% | 76.6739% | 122.672% | 127.793% | 129.399% | 97.9255%
13 | O=C(N1CCS(=O)(=O)CC1)N1C[C@H](c2ccc(OC(F)(F)F)cc2)C[C@H](c2nc(C3CC3)no2)C1 [BAY-386] | 131.392% | 144.172% | 106.882% | 101.013% | 116.117% | 119.771% | 94.8331% | 98.6833% | 61.9652% | 114.29% | 99.9064% | 89.9943%
14 | Cc1c(N2CCNCC2)nc2ccc(Br)cc2c1C(=O)NC[C@H](CCC(=O)O)c1ccccc1Cl [BAY-403] | 78.4474% | 70.4581% | 95.2254% | 113.122% | 128.287% | 83.5136% | 111.567% | 88.9346% | 119.673% | 79.2483% | 97.0551% | 97.643%
